# Active and inactive are the calls of the source. The calls are words filed in the database; no cut-off is given here.
# Tests used:
# [1] = Binding affinity to MS2-tagged 50s rRNA A-site in Escherichia coli BL21(DE3) by single molecule FRET assay
# [2] = Binding affinity to pseudouridylated H69 50s rRNA (unknown origin) by ESI-MS analysis; conditions: for Kd: read-out: Kd(app)
# [3] = Binding affinity to uridylated H69 50s rRNA (unknown origin) by ESI-MS analysis; conditions: for Kd: read-out: Kd(app)
# [4] = Binding affinity to pseudouridylated H69 50s rRNA (unknown origin) at 2:1 peptide:RNA ratio by ESI-MS analysis
# [5] = Binding affinity to uridylated H69 50s rRNA (unknown origin) at 2:1 peptide:RNA ratio by ESI-MS analysis; conditions: read-out: Kd(app)
# [6] = Binding affinity to pseudouridylated H69 50s rRNA (unknown origin) at 1:1 peptide:RNA ratio by ESI-MS analysis
# [7] = Selectivity ratio for uridylated H69 50s rRNA (unknown origin) to pseudouridylated H69 50s rRNA (unknown origin)
# [8] = Binding affinity to 5'-biotin labeled pseudouridylated H69 50s rRNA (unknown origin) at 2:1 peptide:RNA ratio by ESI-MS analysis; conditions: read-out: Kd(app)
# [9] = Binding affinity to 5'-biotin labeled uridylated H69 50s rRNA (unknown origin) by ESI-MS analysis
# [10] = Binding affinity to pseudouridylated H69 50s rRNA (unknown origin) at 20 uM by ESI-MS analysis
# [11] = Binding affinity to 5'-biotin labeled pseudouridylated H69 50s rRNA (unknown origin) by ESI-MS analysis; conditions: read-out: Kd(app)
Molecule,Kd [3] [µM],Kd [2] [µM],also measured
COc1ccc(C[C@H](N)C(=O)N[C@H]2[C@@H](O)[C@H](n3cnc4c(N(C)C)ncnc43)O[C@@H]2CO)cc1 [PUROMYCIN],–,–,Kd [1]: 480 µM
H-AQVANHQ-NH2,9.9,–,Kd(app) [2]: inactive
H-NAVANHQ-NH2,52.8,4.6,–
H-NQAANHQ-NH2,–,–,Kd ([4]; read-out: Kd(app)): 5 µM; Kd [5]: 1 µM; Activity [6]: Active; Selectivity ratio [7]: 23
H-NQRANHQ-NH2,–,–,Kd [8]: 6 µM; Kd(app) [9]: inactive; Activity [4]: Active; Activity [6]: Active
H-NQVAAHQ-NH2,14.3,–,Kd(app) [2]: inactive
H-NQVAHAQ-NH2,–,–,Activity [10]: inactive
H-NQVAHHQ-NH2,–,16,–
H-NQVANAH-NH2,–,> 20,–
H-NQVANAQ-NH2,–,–,Kd(app) [2]: inactive; Kd(app) [3]: inactive
H-NQVANHA-NH2,47.5,13.4,–
H-NQVANHH-NH2,–,> 20,–
H-NQVANHQ-NH2,22.9,4.6,Kd [11]: 3.1 µM
H-NQVANHR-NH2,20.5,–,Kd [11]: 31.8 µM
H-NQVANRQ-NH2,14.4,4.5,–
H-NQVARHQ-NH2,16.5,–,Kd(app) [2]: inactive
H-NQVRNHQ-NH2,21.7,> 20,–
H-NRVANHQ-NH2,35.5,> 40,–
H-RQVANHQ-NH2,10,2.1,–
